Results reported in ChEMBL document CHEMBL1201862, “PubChem BioAssay data set” (2004).
Active and inactive are the calls of the source.

Assays:
[1] = test system: BJ; experiment: cytotoxicity toward BJ-TERT-LT-ST fibroblasts, dose response, cell-based, RAS-independent, luminescence (AID 1935); format: functional; settings: Homo sapiens;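 also: BJ fibroblasts immortalized with TERT plus LT and ST oncogenes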
[2] = inhibitors of firefly luciferase expression or activity, dose response, H4 neuroglioma cells, luminescence (AID 1990); format: functional, cell-based
[3] = cytotoxicity toward DRD oncogenic fibroblasts, dose response, cell-based, non-viral oncogenic, luminescence (AID 1934); format: functional; settings: Homo sapiens
[4] = test system: BJ; experiment: cytotoxicity toward BJ-TERT fibroblasts, dose response, cell-based, RAS-independent, luminescence (AID 1933); format: functional; settings: Homo sapiens
[5] = test system: BJ; experiment: cells; format: functional, cell-based; settings: Homo sapiens
[6] = Luminescence Cell-Based Dose Response HTS to Identify Inhibitors of 5'UTR Stem-Loop Driven Prion Protein mRNA Translation in H4 Neuroglioblastoma Cells. [Related pubchem assays: 1827 (Project Summary), 1813 (Primary HTS)]; format: functional
[7] = cytotoxicity in HEK-293T cells, dose response, cytotoxicity control for TCR NF-kB inhibitor project, luminescence, T-cell screen hits (AID 489026); format: functional, cell-based;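 also: cells exposed to compound about 14 hours before the viability readout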
[8] = inhibitors of SNCA 5'UTR-driven reporter translation, confirmation, H4 neuroglioma cells, luminescence (AID 1988); format: functional, cell-based
[9] = cytotoxicity in HEK-293T cells, dose response, cytotoxicity control for BCR NF-kB inhibitor project, luminescence, B-cell screen hits (AID 489021); format: functional, cell-based;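 also: HEK-293T cells carrying an NF-kB luciferase reporter; cells exposed to compound for about 14 hours before viability readout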
[10] = inhibitors of PGC1a acetylation in cells, dose response, cell-based, cherry-picked samples (AID 720514); format: functional;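 also: potency may reflect raised or lowered acetylation signal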
[11] = biological target: Peroxisome proliferator-activated receptor gamma/Nuclear receptor coactivator 3 (Homo sapiens, UniProt P37231); format: functional;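 also: agonist potency for raising coactivator recruitment to the receptor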
[12] = biological target: Peroxisome proliferator-activated receptor gamma/Nuclear receptor coactivator 2 (Homo sapiens, UniProt P37231); format: functional;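 also: agonist potency for raising coactivator recruitment to the receptor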
Sequence of Peroxisome proliferator-activated receptor gamma/Nuclear receptor coactivator 2 (P37231 whole entry): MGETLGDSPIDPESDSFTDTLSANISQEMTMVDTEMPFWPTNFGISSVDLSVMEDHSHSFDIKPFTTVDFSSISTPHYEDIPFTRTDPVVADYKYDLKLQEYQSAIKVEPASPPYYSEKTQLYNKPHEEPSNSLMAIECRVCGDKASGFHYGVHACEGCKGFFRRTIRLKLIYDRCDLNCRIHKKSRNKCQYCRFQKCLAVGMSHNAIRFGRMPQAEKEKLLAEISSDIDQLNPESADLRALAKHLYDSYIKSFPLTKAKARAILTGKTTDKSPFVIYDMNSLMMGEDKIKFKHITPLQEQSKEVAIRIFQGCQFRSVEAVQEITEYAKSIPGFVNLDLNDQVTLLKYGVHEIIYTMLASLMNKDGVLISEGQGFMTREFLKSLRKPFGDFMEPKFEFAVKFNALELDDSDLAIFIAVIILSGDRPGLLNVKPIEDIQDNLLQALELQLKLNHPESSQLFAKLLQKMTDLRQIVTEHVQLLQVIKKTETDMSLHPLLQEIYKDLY
Sequence of Peroxisome proliferator-activated receptor gamma/Nuclear receptor coactivator 2 (Q15596 whole entry, further chain): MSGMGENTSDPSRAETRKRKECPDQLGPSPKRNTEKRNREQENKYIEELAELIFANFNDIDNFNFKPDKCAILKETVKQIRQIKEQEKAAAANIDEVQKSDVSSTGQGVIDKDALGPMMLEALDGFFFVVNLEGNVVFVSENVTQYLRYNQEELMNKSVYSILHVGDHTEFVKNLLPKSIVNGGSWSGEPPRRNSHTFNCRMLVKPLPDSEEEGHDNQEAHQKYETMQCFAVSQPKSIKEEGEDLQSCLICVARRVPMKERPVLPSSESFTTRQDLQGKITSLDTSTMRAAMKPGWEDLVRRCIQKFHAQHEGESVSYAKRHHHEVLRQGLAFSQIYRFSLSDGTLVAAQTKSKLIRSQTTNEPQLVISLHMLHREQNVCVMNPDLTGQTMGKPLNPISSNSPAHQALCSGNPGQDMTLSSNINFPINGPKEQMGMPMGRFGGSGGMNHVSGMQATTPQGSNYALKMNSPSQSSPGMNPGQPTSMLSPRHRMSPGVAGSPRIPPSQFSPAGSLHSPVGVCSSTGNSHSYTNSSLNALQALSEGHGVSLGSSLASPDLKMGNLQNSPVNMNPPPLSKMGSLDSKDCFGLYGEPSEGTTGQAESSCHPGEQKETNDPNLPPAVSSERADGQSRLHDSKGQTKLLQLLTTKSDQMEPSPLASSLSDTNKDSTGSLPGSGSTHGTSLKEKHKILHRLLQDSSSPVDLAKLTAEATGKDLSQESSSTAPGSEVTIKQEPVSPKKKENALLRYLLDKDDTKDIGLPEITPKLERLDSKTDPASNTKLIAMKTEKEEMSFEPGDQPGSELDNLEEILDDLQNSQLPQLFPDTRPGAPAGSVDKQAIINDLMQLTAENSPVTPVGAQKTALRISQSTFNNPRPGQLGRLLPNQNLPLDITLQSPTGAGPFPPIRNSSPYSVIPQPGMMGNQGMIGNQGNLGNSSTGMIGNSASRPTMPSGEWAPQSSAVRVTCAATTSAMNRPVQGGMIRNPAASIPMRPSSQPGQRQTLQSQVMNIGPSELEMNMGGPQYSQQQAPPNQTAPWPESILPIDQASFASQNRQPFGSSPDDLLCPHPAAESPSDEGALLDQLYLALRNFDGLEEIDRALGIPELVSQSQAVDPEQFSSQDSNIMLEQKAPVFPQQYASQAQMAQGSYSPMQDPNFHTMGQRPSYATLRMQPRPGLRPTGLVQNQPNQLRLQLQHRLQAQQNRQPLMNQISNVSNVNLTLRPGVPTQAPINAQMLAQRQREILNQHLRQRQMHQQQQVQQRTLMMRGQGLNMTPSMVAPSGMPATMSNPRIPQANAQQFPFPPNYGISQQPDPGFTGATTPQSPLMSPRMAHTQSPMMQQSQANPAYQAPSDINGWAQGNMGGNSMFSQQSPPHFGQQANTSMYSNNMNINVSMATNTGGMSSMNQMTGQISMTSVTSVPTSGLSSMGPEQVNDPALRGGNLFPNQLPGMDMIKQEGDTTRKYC

[13] = biological target: Peroxisome proliferator-activated receptor gamma/Nuclear receptor coactivator 1 (Homo sapiens, UniProt P37231); format: functional;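 also: agonist potency as compounds enhance coactivator SRC-1 recruitment to PPARgamma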
Sequence of Peroxisome proliferator-activated receptor gamma/Nuclear receptor coactivator 1 (P37231 whole entry): as the sequence (P37231 whole entry) above
Sequence of Peroxisome proliferator-activated receptor gamma/Nuclear receptor coactivator 1 (Q15788 whole entry, further chain): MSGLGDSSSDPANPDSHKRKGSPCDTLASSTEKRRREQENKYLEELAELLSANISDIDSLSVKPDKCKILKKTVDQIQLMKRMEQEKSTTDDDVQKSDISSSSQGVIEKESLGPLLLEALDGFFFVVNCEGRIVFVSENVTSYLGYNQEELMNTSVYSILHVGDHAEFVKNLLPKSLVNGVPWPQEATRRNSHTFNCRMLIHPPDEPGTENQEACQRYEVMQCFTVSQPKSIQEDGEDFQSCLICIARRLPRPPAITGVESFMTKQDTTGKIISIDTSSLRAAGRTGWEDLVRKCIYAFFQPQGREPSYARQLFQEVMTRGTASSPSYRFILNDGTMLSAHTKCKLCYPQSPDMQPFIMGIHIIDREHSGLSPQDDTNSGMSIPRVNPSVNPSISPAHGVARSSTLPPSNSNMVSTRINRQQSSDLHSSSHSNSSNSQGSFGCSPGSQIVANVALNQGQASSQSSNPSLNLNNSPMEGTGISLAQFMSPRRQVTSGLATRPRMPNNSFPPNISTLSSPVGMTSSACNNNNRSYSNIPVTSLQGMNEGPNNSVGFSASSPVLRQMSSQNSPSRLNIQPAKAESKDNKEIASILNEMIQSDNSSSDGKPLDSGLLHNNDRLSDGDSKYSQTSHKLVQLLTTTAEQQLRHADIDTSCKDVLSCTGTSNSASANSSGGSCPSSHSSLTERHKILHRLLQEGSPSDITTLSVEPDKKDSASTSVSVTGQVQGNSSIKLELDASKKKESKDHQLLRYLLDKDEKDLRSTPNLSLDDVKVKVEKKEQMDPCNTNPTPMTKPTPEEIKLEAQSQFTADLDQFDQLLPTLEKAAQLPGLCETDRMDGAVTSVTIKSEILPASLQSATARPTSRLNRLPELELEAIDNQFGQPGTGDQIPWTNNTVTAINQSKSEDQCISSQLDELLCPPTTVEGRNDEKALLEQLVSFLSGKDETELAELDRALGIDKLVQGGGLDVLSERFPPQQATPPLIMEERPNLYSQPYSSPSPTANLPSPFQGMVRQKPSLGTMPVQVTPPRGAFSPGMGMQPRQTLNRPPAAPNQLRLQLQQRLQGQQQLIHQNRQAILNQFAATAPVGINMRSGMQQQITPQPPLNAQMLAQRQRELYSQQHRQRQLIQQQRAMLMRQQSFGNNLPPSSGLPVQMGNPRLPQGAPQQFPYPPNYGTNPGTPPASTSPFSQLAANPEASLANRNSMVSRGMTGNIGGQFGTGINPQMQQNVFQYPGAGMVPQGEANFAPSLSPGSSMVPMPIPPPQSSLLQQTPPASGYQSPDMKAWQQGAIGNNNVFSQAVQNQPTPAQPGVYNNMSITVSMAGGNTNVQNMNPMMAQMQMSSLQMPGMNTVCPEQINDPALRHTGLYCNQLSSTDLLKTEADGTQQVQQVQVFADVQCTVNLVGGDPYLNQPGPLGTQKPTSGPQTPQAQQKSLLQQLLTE

[14] = biological target: DNA dC->dU-editing enzyme APOBEC-3G (Homo sapiens, UniProt Q9HC16); experiment: Dose Response confirmation of small molecule APOBEC3G DNA Deaminase Inhibitors via a fluorescence-based single-stranded DNA deaminase assay. [Related pubchem assays (depositor defined):AID493012, AID493028]; format: functional
Sequence of DNA dC->dU-editing enzyme APOBEC-3G (Q9HC16 whole entry): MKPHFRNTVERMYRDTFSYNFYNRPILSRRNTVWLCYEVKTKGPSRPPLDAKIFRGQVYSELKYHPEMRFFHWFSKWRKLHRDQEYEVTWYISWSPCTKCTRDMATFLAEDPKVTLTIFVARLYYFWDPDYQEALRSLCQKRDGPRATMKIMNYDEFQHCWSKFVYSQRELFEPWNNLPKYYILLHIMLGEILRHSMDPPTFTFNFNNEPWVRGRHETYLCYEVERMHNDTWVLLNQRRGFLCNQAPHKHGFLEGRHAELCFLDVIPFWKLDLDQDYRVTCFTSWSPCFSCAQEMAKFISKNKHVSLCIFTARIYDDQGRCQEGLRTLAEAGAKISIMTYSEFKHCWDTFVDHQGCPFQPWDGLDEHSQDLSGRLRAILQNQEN

[15] = biological target: DNA dC->dU-editing enzyme APOBEC-3A (Homo sapiens, UniProt P31941); experiment: APOBEC3A DNA deaminase inhibitors, dose response, biochemical (AID 504722); format: functional
Sequence of DNA dC->dU-editing enzyme APOBEC-3A (P31941 whole entry): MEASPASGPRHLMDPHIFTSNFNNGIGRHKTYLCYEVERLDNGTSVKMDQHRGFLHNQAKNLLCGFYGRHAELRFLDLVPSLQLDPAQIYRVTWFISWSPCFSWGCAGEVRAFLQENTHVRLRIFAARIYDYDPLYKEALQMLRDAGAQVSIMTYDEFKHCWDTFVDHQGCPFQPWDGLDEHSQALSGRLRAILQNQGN

[16] = biological target: T1, Rac GTPase-activating protein 1 (Homo sapiens, UniProt Q9H0H5); experiment: MgcRacGAP GTPase-activating activity inhibitors, confirmation, biochemical, ADP Hunter fluorescence, primary and confirmatory (AID 624330); format: functional
T1 sequence (Q9H0H5 whole entry): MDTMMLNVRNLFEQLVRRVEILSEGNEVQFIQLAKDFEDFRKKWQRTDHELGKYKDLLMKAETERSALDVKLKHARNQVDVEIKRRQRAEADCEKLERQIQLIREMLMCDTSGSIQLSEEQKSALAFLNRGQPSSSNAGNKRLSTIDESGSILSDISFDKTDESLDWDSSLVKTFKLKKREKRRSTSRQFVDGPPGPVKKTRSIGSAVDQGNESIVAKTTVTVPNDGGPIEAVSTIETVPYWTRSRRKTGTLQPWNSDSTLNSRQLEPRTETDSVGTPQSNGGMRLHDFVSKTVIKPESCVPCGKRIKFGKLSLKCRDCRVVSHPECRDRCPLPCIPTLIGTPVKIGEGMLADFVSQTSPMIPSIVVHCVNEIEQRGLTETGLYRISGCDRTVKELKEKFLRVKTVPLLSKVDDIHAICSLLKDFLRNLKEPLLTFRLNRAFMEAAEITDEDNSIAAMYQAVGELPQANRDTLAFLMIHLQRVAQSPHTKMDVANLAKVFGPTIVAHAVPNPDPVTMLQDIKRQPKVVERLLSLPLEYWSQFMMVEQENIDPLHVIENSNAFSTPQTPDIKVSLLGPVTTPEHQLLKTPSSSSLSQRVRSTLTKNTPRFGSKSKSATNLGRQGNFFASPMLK

[17] = HEp-2 cell cytotoxicity, dose response, cytotoxicity control for RSV inhibitor project, HTS (AID 2410); format: functional; settings: human respiratory syncytial virus
[18] = biological target: T2, Short transient receptor potential channel 4 (Mus musculus, UniProt Q9QUQ5); experiment: mouse TRPC4 channel inhibitors, dose response, cell-based, HEK293 TRPC4/mu-opioid, Fluo-4 calcium (AID 434942); format: functional;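 also: potency of inhibitors blocking the TRPC4 calcium response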
T2 sequence (Q9QUQ5 whole entry): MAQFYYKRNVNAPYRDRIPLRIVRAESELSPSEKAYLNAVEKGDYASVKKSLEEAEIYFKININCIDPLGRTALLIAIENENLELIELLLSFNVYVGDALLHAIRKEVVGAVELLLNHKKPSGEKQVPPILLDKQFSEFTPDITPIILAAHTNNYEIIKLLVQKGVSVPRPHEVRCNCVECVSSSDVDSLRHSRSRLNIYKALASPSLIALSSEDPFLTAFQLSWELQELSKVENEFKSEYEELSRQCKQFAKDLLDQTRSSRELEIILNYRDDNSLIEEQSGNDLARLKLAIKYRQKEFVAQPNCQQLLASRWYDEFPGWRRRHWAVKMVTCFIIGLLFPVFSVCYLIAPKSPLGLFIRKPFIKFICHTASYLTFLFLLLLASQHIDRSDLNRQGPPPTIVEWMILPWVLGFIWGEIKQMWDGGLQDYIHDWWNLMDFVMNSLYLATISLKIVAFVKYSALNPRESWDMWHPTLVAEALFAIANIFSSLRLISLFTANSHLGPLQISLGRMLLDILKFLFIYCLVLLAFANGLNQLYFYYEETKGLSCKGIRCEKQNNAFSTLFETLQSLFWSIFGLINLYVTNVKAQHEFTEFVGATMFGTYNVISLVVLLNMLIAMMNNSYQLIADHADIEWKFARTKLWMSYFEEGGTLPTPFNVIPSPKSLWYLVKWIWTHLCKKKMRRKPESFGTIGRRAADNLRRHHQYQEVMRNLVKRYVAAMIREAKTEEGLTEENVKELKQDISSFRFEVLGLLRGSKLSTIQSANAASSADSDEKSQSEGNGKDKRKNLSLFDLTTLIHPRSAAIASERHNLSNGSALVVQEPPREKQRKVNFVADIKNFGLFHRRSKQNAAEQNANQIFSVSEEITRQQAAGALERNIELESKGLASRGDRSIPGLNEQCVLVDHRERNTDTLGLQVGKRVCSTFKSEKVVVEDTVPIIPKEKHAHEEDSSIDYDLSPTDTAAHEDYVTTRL

COc1ccc(-n2nnnc2-c2cccc(OC)c2)cc1
EC50 [1]: 2.71 µM (active) | EC50 [2]: 4.68 µM (inconclusive) | EC50 [3]: 2.04 µM (active) | EC50 [4]: 8.48 µM (active) | EC50 [5]: 109 µM (active) | EC50 [6]: 11.6 µM (active) | IC50 [7]: > 80 µM (inactive) | EC50 [8]: 0.824 µM (inconclusive)

Cc1cc(OCC(=O)NC2CC2)c2c(C)c(C)c(=O)oc2c1
IC50 [9]: > 80 µM (inactive)

Cc1ccc(/C=C2\SC(=S)N(CCC(=O)NNC(=O)c3ccncc3)C2=O)cc1
IC50 [9]: > 80 µM (inactive)

Cc1cc(OCC(=O)Nc2ccc(CCO)cc2)c2c(C)c(C)c(=O)oc2c1
IC50 [9]: > 80 µM (inactive)

C[C@H](CO)N1C[C@H](C)[C@H](CN(C)Cc2ccccc2)Oc2cc(Br)ccc2S1(=O)=O
AC50 [10]: 25.8 µM (active)

Fc1cccc(-c2ccc([C@@H]3[C@@H]4CN(Cc5nccs5)C[C@H]3N4)cc2)c1
AC50 [10]: 17.6 µM (active)

O=C(C[C@H]1CC[C@@H](NC(=O)c2ccccc2)[C@H](CO)O1)Nc1ccc(-c2ccccc2)cc1
AC50 [10]: 4.76 µM (active)

COc1ccc(OC)c2c1s/c(=N\C(=O)C(C)(C)C)n2C
EC50 [11]: > 79.4 µM (not active) | EC50 [12]: > 79.4 µM (not active) | EC50 [13]: > 79.4 µM (not active)

Cc1cc(-c2nnc(S)n2/N=C/c2cccc(O)c2)[nH]n1
IC50 [14]: 2.51 µM (active) | IC50 [15]: > 100 µM (inactive) | IC50 [16]: 157 µM (active)

CCOc1cc(/C=N\Nc2nc(Nc3ccccc3)nc(N3CCOCC3)n2)ccc1OC(=O)c1ccco1
IC50 [9]: > 80 µM (inactive)

Cc1nn(-c2ccccc2)c(C)c1/C=N/n1c(S)nnc1-c1ccncc1
IC50 [14]: 2.75 µM (active) | IC50 [15]: > 100 µM (inactive) | CC50 [17]: > 50 µM (active)

Cc1cc(N/N=C/c2ccccc2F)c2ccccc2n1
EC50 [18]: 2.66 µM (active)
